The results in this text go back to article PMC7762498, “Demethoxycurcumin analogue DMC-BH exhibits potent anticancer effects on orthotopic glioblastomas” (Aging (Albany NY), 2020).

In one data set the test system is SHG-44 glioma cells. Put plainly: MTT cell viability assay, SHG-44. Conditions: Homo sapiens, SHG-44 cells, 72 hours. Format: cell-based. How it is done: (§1) To investigate the cytotoxicity of DMC-BH on glioma cells (Figure 1A), we used an MTT assay to assess viability changes in SHG-44, C6, U251, U87, A172 and primary glioma cells treated with various concentrations of DMC-BH for 24, 48 or 72 hours (Figure 1B–1H). […] U251 and SHG-44 cells were more sensitive to DMC-BH. We then used the human glial cell line, HEB, to evaluate the toxicity of DMC-BH in normal cells. […] DMC-BH was not toxic to normal cells.
(§2) The human GBM U87-luc cell line was purchased from the Shanghai Sunbio Medical Biotechnology Co., Ltd. (Shanghai, China). Cells were cultured in DMEM supplemented with 10% fetal bovine serum (FBS) and maintained in an incubator at 37° C and 5% CO2. After cells were routinely passaged at 2- to 3-day intervals, animal experiments were carried out when the cells entered exponential growth phase. Rat C6, human SHG-44, U87, A172 and U251 glioma cells were obtained from the Shanghai Institute of Cell Biology, Chinese Academy of Sciences (Shanghai, China). Primary glioma cells were preserved by our laboratory from previous studies. […]
(§3) Glioblastoma cells were seeded into 96-well plates and exposed to vehicle (PBS) or different concentrations of DMC-BH for 24, 48 or 72 hours. Cell viability was measured using an MTT assay and was expressed as a ratio to the absorbance value of the control cells at 570 nm.
In general terms: Tetrazolium assays rely on reduction of a dye to a coloured formazan, in cell work by metabolically active cells.

The test system of the next data set is C6 glioma cells. Put plainly: MTT cell viability assay, C6. Conditions: Rattus norvegicus, 72 hours. Format: cell-based. As to the method: as §1, §2, §3
The test system of a further data set is U87 glioma cells. Kind of data set: MTT cell viability assay, U87. It is filed as cell-based. As to conditions: Homo sapiens, U-87 MG, 72 hours. As to the method:
as §1, §2, §3

The nature of the next data set: in vivo. Conditions: female, ICR, mouse, ip.
In a further data set the test system is ICR mice. Put plainly: in vivo. As to conditions: mouse; for Mortality rate (%) / No. of dead mice: female, ICR, 14 days.
A further data set can be described thus: Plasma protein binding. Format: in vitro ADME.
The subject of a further data set is CYP-450. Put plainly: CYP-450-related metabolism. It is filed as in vitro ADME.
Data set [1] is described as follows: Octanol-water partition coefficient. It is filed as physicochemical. From the text:
To determine whether DMC-BH inhibits the growth of glioma in the brain, we assessed its octanol-water partition coefficients and BBB penetrability. The hydrophobic parameters (logP) of DMC-BH and DMC were estimated under physiological as well as in acidic and basic conditions. The logP values for DMC-BH were negative at pH 2.5 and pH 9.0, as it was an amphoteric compound. At low pH or high pH conditions, DMC-BH occurred in the form of salts, and its logP values became negative due to better solubility.
Figure 2 Octanol-water partition coefficients (logP) and BBB penetrability of DMC-BH. (A) The logP was defined as log(Coctanol/Cwater). The amount of the compound in the water phase was determined spectrophotometrically, and the amount in the octanol phase was obtained by subtracting the supernatant concentration from the total concentration. (B) The BBB penetrability was defined as a brain-to-plasma AUC(time point) ratio. Values are expressed as the means ± SEM of 3 independent experiments.
The partition coefficient (P) between n-octanol and water was determined. The buffer mixture (0.05 M citric buffer, pH 2.5; 0.05 M acetic acid buffer, pH 5.5; 5 mM PBS, pH 7.4; or 0.05 M bicarbonate buffer, pH 9.0) and n-octanol was pre-equilibrated overnight at room temperature. After addition of the DMC or DMC-BH, the mixture was vortexed for 10 minutes and incubated at room temperature for an additional 15 minutes before centrifugation at 1000 g for 5 minutes. The amount of the compound in water phase was determined spectrophotometrically using standard curves, and the amount in lipid phase was obtained by subtracting the supernatant concentration from the total concentration, measured before mixing of the phases. P was determined according to P = (noct/Voct)/(nw/Vw), where n denotes the number of compound moles, V is the volume and the subscripts oct and w refer to n-octanol and aqueous phase, respectively.

The subject of data set [2] is glioblastoma multiforme (GBM) patient derived tumors. Kind of data set: Patient-derived tumor xenograft (PDTX) model. Format: in vivo, mice. From the text: In recent years, PDTX models have been used to mimic human tumors. These models are more clinically relevant than cell line-based xenograft models. Thus, we performed an in vivo study in a PDTX tumor model by implanting human glioma samples from a patient donor into B-NDG mice (Figure 7A).
Figure 7 In vivo anti-tumor activity of DMC-BH in the PDTX tumor model. (A) A scheme illustrating the process of creating the patient-derived tumor model. (B) Tumor growth curves of mice after treatment with 7.5 mg/kg, 15 mg/kg or 30 mg/kg DMC-BH or 20 mg/kg TMZ. (C) Average tumor weight at day 21 after different treatments. (D) Quantification of the Ki67-positive area in different treatment groups. (E) Representative H&E-stained tumor slices and Ki67 immunofluorescence labeled tumor tissue sections from different treatments groups. The data are shown as mean ± SD (n = 6).
Surgically resected human glioma tissue was obtained from a cancer patient (#0407002) following an approved Nanjing Medicinal University Institutional Review Board protocol. Within 2 hours of surgical resection, tumor tissues were cut into 1-2 mm fragments and implanted into SCID mice (B-NDG, 6 weeks old, female) using a surgical procedure approved by Nanjing Medicinal University Institutional Animal Care and Use committee. After surgery, tumor growth in the mice was monitored by palpating the abdomen twice per week. Tumors grew to 5-10 mm in diameter in about 8-10 weeks. The SCID mice bearing PDTX tumors were sacrificed, and tumor fragments of 1 to 2 mm in size were implanted into 6-week-old female SCID mice. Over 60% of the mice experienced tumor growth in approximately 6 weeks.
In general terms: A xenograft is tissue or cells of one species grown in another, often human tumour cells in immunodeficient mice.

Where [3] appears, read: B-NDG mice, DMC-BH 7.5, 15 or 30 mg/kg, TMZ 20 mg/kg.

Each structure is given as a SMILES string. pIC50: −log10 of the molar value. Read-outs that look alike come from different tables or passages of the source.

For `COc1cc(C=CC(=O)CC(=O)C=Cc2ccc(O)c(CN3CCCC3)c2)ccc1O` [DMC-BH, 1-[4-Hydroxy-3-(pyrrolidin-1-ylmethyl)phenyl]-7-(4-hydroxy-3-methoxyphenyl) hepta-1,6-diene-3,5-dione], the negative-log IC50 (pIC50) with SHG-44 glioma cells is 5.51; in the data set with C6 glioma cells, 5.24; with U87 glioma cells, 5.32. The molecule further showed a median lethal dose (LD50) at 14 days in the data set “in vivo” of 48.1 mg/kg. Besides, the “Mortality rate (%)” value stood at 0.0% in the data set with ICR mice (5 mg/kg), 0.0% in the data set with ICR mice (10 mg/kg), 0.0% in the data set on ICR mice (20 mg/kg) and 10.0% with ICR mice (30 mg/kg). Besides, the “No. of dead mice” value in the data set with ICR mice (5 mg/kg) worked out at 0; in the data set on ICR mice (10 mg/kg), 0; in the data set with ICR mice (20 mg/kg) it was 0; in the data set with ICR mice (30 mg/kg) it was 1. For the same molecule, the “abnormalities compared to the control mice” value in the data set on ICR mice is given as “no abnormalities”. For the same molecule, the fraction unbound in “Plasma protein binding” was 0.038. Moreover, the CYP-450-related metabolism entry with CYP-450 is reported as “low”. Further, the logP in data set [1] (n-octanol/water (buffer), pH 7.4, n-octanol/water, read-out: logP) is 3.26; in [1] (pH 2.5, n-octanol/water), “negative”; in [1] (pH 9.0, n-octanol/water), “negative”. The “tolerability in PDTX model” value in data set [2] (setting [3]) is recorded as “tolerated”. In addition, the “tumor growth in PDTX model” value in [2] (setting [3]) is recorded as “significant tumor regression”. Besides, in data set [2] (PDTX tumor, 20 mg/kg, compared with the control tumor), the “number of Ki67-positive cells in tumor” value is listed as “marked decrease”.

By pIC50 is commonly meant the negative decadic logarithm of the IC50, by convention in mol/L. Usually LD50 stands for the dose expected to kill half of the subjects tested. Low values mean a more toxic substance, high ones a less toxic substance. By fraction unbound is commonly meant the share of the substance not bound to proteins or other matrix. High values mean much free substance, low ones little free substance. The term logP denotes the decadic logarithm of the partition coefficient of the neutral form, usually between octanol and water.
